Patent US10730858B2, “Lactam, cyclic urea and carbamate, and triazolone derivatives as potent and selective rock inhibitors” (BRISTOL-MYERS SQUIBB COMPANY, priority 2016, dated 2020)

Test system: rat stroke model
Assay: not given
Details: in vivo; cited from earlier work

Structure (SMILES)	infarct size and neurologic deficit
O=S(=O)(c1cccc2cnccc12)N1CCCNCC1 [fasudil]	reduce both the infarct size and neurologic deficit

Test system: neointimal formation
Assay: not given
Details: rats; cited from earlier work

Structure (SMILES)	neointimal formation
C[C@@H](N)[C@H]1CC[C@H](C(=O)Nc2ccncc2)CC1 [Example Y-27632, Y-27632]	inhibited neointimal formation

Test system: rat models of hypertension
Assay: not given
Details: control rats; cited from earlier work

Structure (SMILES)	blood pressure
C[C@@H](N)[C@H]1CC[C@H](C(=O)Nc2ccncc2)CC1 [Example Y-27632, Y-27632]	only a minor effect

Same assay, conditions: spontaneously hypertensive rat, renal hypertensive rat and deoxycortisone acetate salt hypertensive rat models; cited from earlier work

Structure (SMILES)	blood pressure
C[C@@H](N)[C@H]1CC[C@H](C(=O)Nc2ccncc2)CC1 [Example Y-27632, Y-27632]	significantly decrease blood pressure

Biological target: ROCK2 (Homo sapiens, UniProt O75116)
Assay: ROCK2 assay (Caliper LABCHIP peptide phosphorylation, kinase inhibition)
Assay type: biochemical
Details: 5 μM ATP, 1.5 μM peptide substrate
Protocol: The effectiveness of compounds of the present invention as ROCK inhibitors can be determined in a 30 μL assay containing 20 mM HEPES, pH 7.5, 20 mM MgCl2, 0.015% Brij-35, 4 mM DTT, 5 μM ATP and 1.5 μM peptide substrate (FITC-AHA-AKRRRLSSLRA-OH) (SEQ ID NO. 1). Compounds were dissolved in DMSO so that the final concentration of DMSO was <2%, and the reaction was initiated with Rho kinase variants. After incubation, the reaction was terminated by the addition of EDTA and the phosphorylated and non-phosphorylated peptides separated using a LABCHIP® 3000 Reader (Caliper Life Sciences). […] Compounds were tested in dose-response format, and the inhibition of kinase activity was calculated at each concentration of compound. The inhibition data were fit using a curve-fitting program to determine the IC50; i.e., the concentration of compound required to inhibit 50% of kinase activity.
Representative Examples were tested in the ROCK2 assay described above and found having ROCK2 inhibitory activity. The ranges of the ROCK2 IC50 values are as follows: ROCK2 IC50: ++++ (<10 nM) +++ (10-100 nM) ++ (100-500 nM) + (500-2000 nM)

ROCK2, sequence (O75116 whole entry, species assumed): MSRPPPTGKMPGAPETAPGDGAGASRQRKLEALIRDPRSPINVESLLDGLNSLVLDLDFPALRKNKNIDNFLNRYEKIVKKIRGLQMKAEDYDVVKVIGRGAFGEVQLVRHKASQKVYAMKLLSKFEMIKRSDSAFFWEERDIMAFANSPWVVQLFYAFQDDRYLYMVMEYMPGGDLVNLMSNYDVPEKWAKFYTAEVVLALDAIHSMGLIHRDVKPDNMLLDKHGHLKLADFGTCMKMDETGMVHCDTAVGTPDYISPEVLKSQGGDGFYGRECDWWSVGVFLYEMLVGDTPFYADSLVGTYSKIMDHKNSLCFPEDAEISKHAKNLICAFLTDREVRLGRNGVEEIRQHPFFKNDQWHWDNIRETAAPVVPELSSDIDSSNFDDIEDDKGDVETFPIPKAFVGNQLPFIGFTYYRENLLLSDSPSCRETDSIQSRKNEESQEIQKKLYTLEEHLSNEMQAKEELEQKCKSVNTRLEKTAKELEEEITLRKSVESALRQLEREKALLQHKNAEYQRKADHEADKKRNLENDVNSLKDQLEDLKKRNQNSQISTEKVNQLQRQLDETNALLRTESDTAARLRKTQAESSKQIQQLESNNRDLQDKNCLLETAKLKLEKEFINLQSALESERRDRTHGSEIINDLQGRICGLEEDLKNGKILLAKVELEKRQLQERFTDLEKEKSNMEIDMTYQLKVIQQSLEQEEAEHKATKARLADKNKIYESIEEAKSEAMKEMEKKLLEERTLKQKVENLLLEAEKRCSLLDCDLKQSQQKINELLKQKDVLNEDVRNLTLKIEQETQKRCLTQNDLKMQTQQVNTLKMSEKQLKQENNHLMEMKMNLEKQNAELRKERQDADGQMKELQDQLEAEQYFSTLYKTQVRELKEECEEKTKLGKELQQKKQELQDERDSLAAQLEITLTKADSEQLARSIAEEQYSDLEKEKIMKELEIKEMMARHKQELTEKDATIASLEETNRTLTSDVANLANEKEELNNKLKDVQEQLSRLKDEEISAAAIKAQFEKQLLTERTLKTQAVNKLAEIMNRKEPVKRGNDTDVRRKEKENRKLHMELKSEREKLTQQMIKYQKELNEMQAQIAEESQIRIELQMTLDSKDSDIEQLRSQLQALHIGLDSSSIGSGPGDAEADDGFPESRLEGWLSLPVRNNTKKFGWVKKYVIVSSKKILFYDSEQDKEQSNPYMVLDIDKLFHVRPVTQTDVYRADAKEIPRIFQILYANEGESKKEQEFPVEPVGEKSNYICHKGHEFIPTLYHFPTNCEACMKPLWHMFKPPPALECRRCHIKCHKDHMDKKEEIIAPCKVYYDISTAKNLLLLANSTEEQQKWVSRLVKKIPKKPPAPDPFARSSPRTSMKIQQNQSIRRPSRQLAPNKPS

IC50 [µM]	Structure (SMILES)
0.1 to 0.5	O=C(NCC1CN(c2ccc(-c3n[nH]c(=O)c4ccccc34)cc2)C(=O)O1)c1ccccc1 (stereo not drawn) [Example 18, N-({2-oxo-3-[4-(4-oxo-3,4-dihydrophthalazin-1-yl)phenyl]-1,3-oxazolidin-5-yl}methyl)benzamide]
0.5 to 2	O=C1C(C(=O)N2CCc3ccccc32)CCN1c1ccc(-c2n[nH]c(=O)c3ccccc23)cc1 (stereo not drawn) [Example 3, 4-{4-[3-(2,3-dihydro-1H-indole-1-carbonyl)-2-oxopyrrolidin-1-yl]phenyl}-1,2-dihydrophthalazin-1-one]
0.1 to 0.5	O=c1[nH]nc(-c2ccc(-n3ncn(Cc4ccccc4)c3=O)cc2)c2ccccc12 [Example 41, 4-[4-(4-benzyl-5-oxo-4,5-dihydro-1H-1,2,4-triazol-1-yl)phenyl]-1,2-dihydrophthalazin-1-one]
< 0.01	O=C1N(c2ccccc2)CCN1c1ccc(-c2n[nH]c(=O)c3ccccc23)cc1 [Example 2, 4-[4-(2-oxo-3-phenylimidazolidin-1-yl)phenyl]-1,2-dihydrophthalazin-1-one]
< 0.01	O=C1COc2cc(NC3CCN(c4ccc(-c5n[nH]c(=O)c6ccccc56)cc4)C3=O)ccc2N1 (single isomer, unassigned) [Example 82, 7-({2-oxo-1-[4-(4-oxo-3,4-dihydrophthalazin-1-yl)phenyl]pyrrolidin-3-yl}amino)-3,4-dihydro-2H-1,4-benzoxazin-3-one]
0.01 to 0.1	CC(C)n1ccc(NC2CCN(c3ccc(-c4n[nH]c(=O)c5ccccc45)cc3)C2=O)n1 (stereo not drawn) [Example 64, 4-[4-(2-oxo-3-{[1-(propan-2-yl)-1H-pyrazol-3-yl]amino}pyrrolidin-1-yl)phenyl]-1,2-dihydrophthalazin-1-one]
0.01 to 0.1	COc1cc(NC2CCN(c3ccc(-c4n[nH]c(=O)c5ccccc45)cc3)C2=O)ccc1N1CCN(C)CC1 (stereo not drawn) [Example 48, 4-[4-(3-{[3-methoxy-4-(4-methylpiperazin-1-yl)phenyl]amino}-2-oxopyrrolidin-1-yl)phenyl]-1,2-dihydrophthalazin-1-one]
0.01 to 0.1	COc1ccccc1NC1CCN(c2ccc(-c3n[nH]c(=O)c4ccccc34)cc2)C1=O (stereo not drawn) [Example 61, 4-(4-{3-[(2-methoxyphenyl)amino]-2-oxopyrrolidin-1-yl}phenyl)-1,2-dihydrophthalazin-1-one]
0.01 to 0.1	COc1c(F)ccc(NC2CCN(c3ccc(-c4n[nH]c(=O)c5ccccc45)cc3)C2=O)c1F (stereo not drawn) [Example 40, 4-(4-{3-[(2,4-difluoro-3-methoxyphenyl)amino]-2-oxopyrrolidin-1-yl}phenyl)-1,2-dihydrophthalazin-1-one]
0.1 to 0.5	O=C1CC(c2ccccc2)CN1c1ccc(-c2n[nH]c(=O)c3ccccc23)cc1 (stereo not drawn) [Example 4, 4-[4-(2-oxo-4-phenylpyrrolidin-1-yl)phenyl]-1,2-dihydrophthalazin-1-one]
0.5 to 2	O=C(C1CCN(c2ccc(-c3n[nH]c(=O)c4ccccc34)cc2)C1=O)N1Cc2ccccc2C1 (stereo not drawn) [Example 5, 4{-4-[3-(2,3-dihydro-1H-isoindole-2-carbonyl)-2-oxopyrrolidin-1-yl]phenyl}-1,2-dihydrophthalazin-1-one]
0.01 to 0.1	CS(=O)(=O)c1cccc(NC2CCN(c3ccc(-c4n[nH]c(=O)c5ccccc45)cc3)C2=O)c1 (stereo not drawn) [Example 67, 4-(4-{3-[(3-methanesulfonylphenyl)amino]-2-oxopyrrolidin-1-yl}phenyl)-1,2-dihydrophthalazin-1-one]
0.1 to 0.5	O=C(NCc1ccccc1)C1CCN(c2ccc(-c3n[nH]c(=O)c4ccccc34)cc2)C1=O (stereo not drawn) [Example 7, N-benzyl-2-oxo-1-[4-(4-oxo-3,4-dihydrophthalazin-1-yl)phenyl]pyrrolidine-3-carboxamide]
0.01 to 0.1	Cn1nc(C2CC2)cc1NC1CCN(c2ccc(-c3n[nH]c(=O)c4ccccc34)cc2)C1=O (stereo not drawn) [Example 35, 4-(4-{3-[(3-cyclopropyl-1-methyl-1H-pyrazol-5-yl)amino]-2-oxopyrrolidin-1-yl}phenyl)-1,2-dihydrophthalazin-1-one]
0.01 to 0.1	O=C1C(Nc2ccc3c(c2)OCO3)CCN1c1ccc(-c2n[nH]c(=O)c3ccccc23)cc1 (stereo not drawn) [Example 33, 4-(4-{3-[(2H-1,3-benzodioxol-5-yl)amino]-2-oxopyrrolidin-1-yl}phenyl)-1,2-dihydrophthalazin-1-one]
0.01 to 0.1	CSc1cccc(NC2CCN(c3ccc(-c4n[nH]c(=O)c5ccccc45)cc3)C2=O)c1 (stereo not drawn) [Example 68, 4-[4-(3-{[3-(methylsulfanyl)phenyl]amino}-2-oxopyrrolidin-1-yl)phenyl]-1,2-dihydrophthalazin-1-one]
0.1 to 0.5	O=c1[nH]nc(-c2ccc(-n3ncn(Cc4cccc(OC(F)F)c4)c3=O)cc2)c2ccccc12 [Example 63, 4-[4-(4-{[3-(difluoromethoxy)phenyl]methyl}-5-oxo-4,5-dihydro-1H-1,2,4-triazol-1-yl)phenyl]-1,2-dihydrophthalazin-1-one]
0.5 to 2	O=C1C(NC2Cc3ccccc3C2)CCN1c1ccc(-c2n[nH]c(=O)c3ccccc23)cc1 (stereo not drawn) [Example 29, 4-(4-{3-[(2,3-dihydro-1H-inden-2-yl)amino]-2-oxopyrrolidin-1-yl}phenyl)-1,2-dihydrophthalazin-1-one]
0.01 to 0.1	O=C1C(Nc2ccc(OC(F)F)cc2)CCN1c1ccc(-c2n[nH]c(=O)c3ccccc23)cc1 (stereo not drawn) [Example 60, 4-[4-(3-{[4-(difluoromethoxy)phenyl]amino}-2-oxopyrrolidin-1-yl)phenyl]-1,2-dihydrophthalazin-1-one]
0.1 to 0.5	CS(=O)(=O)c1ccc(CC2CN(c3ccc(-c4n[nH]c(=O)c5ccccc45)cc3)C(=O)O2)cc1 (stereo not drawn) [Example 20, 4-(4-{5-[(4-methanesulfonylphenyl)methyl]-2-oxo-1,3-oxazolidin-3-yl}phenyl)-1,2-dihydrophthalazin-1-one]
0.01 to 0.1	COc1cc(F)cc(NC2CCN(c3ccc(-c4n[nH]c(=O)c5ccccc45)cc3)C2=O)c1 (stereo not drawn) [Example 32, 4-(4-{3-[(3-fluoro-5-methoxyphenyl)amino]-2-oxopyrrolidin-1-yl}phenyl)-1,2-dihydrophthalazin-1-one]
0.01 to 0.1	O=C1COc2cc(NC3CCN(c4ccc(-c5n[nH]c(=O)c6ccccc56)cc4)C3=O)ccc2N1 (single isomer, unassigned) [Example 83, 7-({2-oxo-1-[4-(4-oxo-3,4-dihydrophthalazin-1-yl)phenyl]pyrrolidin-3-yl}amino)-3,4-dihydro-2H-1,4-benzoxazin-3-one]
0.01 to 0.1	O=C1C(Nc2ccc3c(c2)OC(F)(F)O3)CCN1c1ccc(-c2n[nH]c(=O)c3ccccc23)cc1 (stereo not drawn) [Example 51, 4-(4-{3-[(2,2-difluoro-2H-1,3-benzodioxol-5-yl)amino]-2-oxopyrrolidin-1-yl}phenyl)-1,2-dihydrophthalazin-1-one]

Test system: IL-1 beta-induced coronary stenosis
Assay: not given
Details: long term treatment; cited from earlier work

Structure (SMILES)	coronary constrictive remodeling	coronary stenosis
O=S(=O)(c1cccc2cnccc12)N1CCCNCC1 [fasudil]	promote a regression of coronary constrictive remodeling	progressively reduce coronary stenosis

Test system: congestive heart failure in Dahl salt-sensitive rats
Assay: not given
Details: rat, in vivo; cited from earlier work

Structure (SMILES)	ventricular hypertrophy, fibrosis and function
C[C@@H](N)[C@H]1CC[C@H](C(=O)Nc2ccncc2)CC1 [Example Y-27632, Y-27632]	improve ventricular hypertrophy, fibrosis and function
